Laboratory results published in patent publication US10450316B2, “Certain protein kinase inhibitor” (Chongqing Fochon Pharmaceutical Co., Ltd., priority 2015, dated 2019).

Test system: BE(2)-C cell
Test: Cell proliferation assay (MTS) in BE(2)-C cells
Format: cell-based
Settings: Homo sapiens, inhibition of BE(2)-C cell proliferation, 48 h
How it was run: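 Proliferation read-out was MTS absorbance at 490 nm, with 650 nm as reference, after a 2 h MTS incubation, giving IC50 values. Before reading, BE(2)-C cells plated at 3000 per well were exposed to nine compound concentrations from 10000 down to 1.5 nM for 48 h at 37 °C, 5% CO2.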

SMILES | IC50
CC1(C)CCc2nc3c(F)cc(-c4nc(Nc5ccc(CN6CCN7CCC[C@@H]7C6)cn5)ncc4F)cc3n21 [Example 110, (R)-5-fluoro-4-(5-fluoro-1,1-dimethyl-2,3-dihydro-1H-benzo[d]pyrrolo[1,2-a]imidazol-7-yl)-N-(5-((hexahydropyrrolo[1,2-a]pyrazin-2(1H)-yl)methyl)pyridin-2-yl)pyrimidin-2-amine] | 10 to 100 nM
CC1(C)CCc2nc3c(F)cc(-c4nc(Nc5ccc(CN6CC7(CCNCC7)C6)cn5)ncc4F)cc3n21 [Example 111, N-(5-((2,7-diazaspiro[3.5]nonan-2-yl)methyl)pyridin-2-yl)-5-fluoro-4-(5-fluoro-1,1-dimethyl-2,3-dihydro-1H-benzo[d]pyrrolo[1,2-a]imidazol-7-yl)pyrimidin-2-amine] | > 100 nM
CN1CCC2(CC1)CN(Cc1ccc(Nc3ncc(F)c(-c4cc(F)c5nc6n(c5c4)C(C)(C)CC6)n3)nc1)C2 [Example 112, 5-fluoro-4-(5-fluoro-1,1-dimethyl-2,3-dihydro-1H-benzo[d]pyrrolo[1,2-a]imidazol-7-yl)-N-(5-((7-methyl-2,7-diazaspiro[3.5]nonan-2-yl)methyl)pyridin-2-yl)pyrimidin-2-amine] | < 10 nM
CCN1CCC2(CC1)CN(Cc1ccc(Nc3ncc(F)c(-c4cc(F)c5nc6n(c5c4)C(C)(C)CC6)n3)nc1)C2 [Example 113, N-(5-((7-ethyl-2,7-diazaspiro[3.5]nonan-2-yl)methyl)pyridin-2-yl)-5-fluoro-4-(5-fluoro-1,1-dimethyl-2,3-dihydro-1H-benzo[d]pyrrolo[1,2-a]imidazol-7-yl)pyrimidin-2-amine] | < 10 nM
CC1(C)CCc2nc3c(F)cc(-c4nc(Nc5ccc(CN6CCC7(CC6)CNC7)cn5)ncc4F)cc3n21 [Example 114, N-(5-((2,7-diazaspiro[3.5]nonan-7-yl)methyl)pyridin-2-yl)-5-fluoro-4-(5-fluoro-1,1-dimethyl-2,3-dihydro-1H-benzo[d]pyrrolo[1,2-a]imidazol-7-yl)pyrimidin-2-amine] | > 100 nM
CN1CC2(CCN(Cc3ccc(Nc4ncc(F)c(-c5cc(F)c6nc7n(c6c5)C(C)(C)CC7)n4)nc3)CC2)C1 [Example 115, 5-fluoro-4-(5-fluoro-1,1-dimethyl-2,3-dihydro-1H-benzo[d]pyrrolo[1,2-a]imidazol-7-yl)-N-(5-((2-methyl-2,7-diazaspiro[3.5]nonan-7-yl)methyl)pyridin-2-yl)pyrimidin-2-amine] | 10 to 100 nM
CCN1CC2(CCN(Cc3ccc(Nc4ncc(F)c(-c5cc(F)c6nc7n(c6c5)C(C)(C)CC7)n4)nc3)CC2)C1 [Example 116, N-(5-((2-ethyl-2,7-diazaspiro[3.5]nonan-7-yl)methyl)pyridin-2-yl)-5-fluoro-4-(5-fluoro-1,1-dimethyl-2,3-dihydro-1H-benzo[d]pyrrolo[1,2-a]imidazol-7-yl)pyrimidin-2-amine] | 10 to 100 nM
CC1(C)CCc2nc3c(F)cc(-c4nc(Nc5ccc(CN6CC7(CNC7)C6)cn5)ncc4F)cc3n21 [Example 117, N-(5-((2,6-diazaspiro[3.3]heptan-2-yl)methyl)pyridin-2-yl)-5-fluoro-4-(5-fluoro-1,1-dimethyl-2,3-dihydro-1H-benzo[d]pyrrolo[1,2-a]imidazol-7-yl)pyrimidin-2-amine] | > 100 nM
CN1CC2(C1)CN(Cc1ccc(Nc3ncc(F)c(-c4cc(F)c5nc6n(c5c4)C(C)(C)CC6)n3)nc1)C2 [Example 118, 5-fluoro-4-(5-fluoro-1,1-dimethyl-2,3-dihydro-1H-benzo[d]pyrrolo[1,2-a]imidazol-7-yl)-N-(5-((6-methyl-2,6-diazaspiro[3.3]heptan-2-yl)methyl)pyridin-2-yl)pyrimidin-2-amine] | 10 to 100 nM
CCN1CC2(C1)CN(Cc1ccc(Nc3ncc(F)c(-c4cc(F)c5nc6n(c5c4)C(C)(C)CC6)n3)nc1)C2 [Example 119, N-(5-((6-ethyl-2,6-diazaspiro[3.3]heptan-2-yl)methyl)pyridin-2-yl)-5-fluoro-4-(5-fluoro-1,1-dimethyl-2,3-dihydro-1H-benzo[d]pyrrolo[1,2-a]imidazol-7-yl)pyrimidin-2-amine] | 10 to 100 nM
CC1(C)CCc2nc3c(F)cc(-c4nc(Nc5ccc(CN6CCC7(CCNCC7)CC6)cn5)ncc4F)cc3n21 [Example 120, N-(5-((3,9-diazaspiro[5.5]undecan-3-yl)methyl)pyridin-2-yl)-5-fluoro-4-(5-fluoro-1,1-dimethyl-2,3-dihydro-1H-benzo[d]pyrrolo[1,2-a]imidazol-7-yl)pyrimidin-2-amine] | > 100 nM
CN1CCC2(CC1)CCN(Cc1ccc(Nc3ncc(F)c(-c4cc(F)c5nc6n(c5c4)C(C)(C)CC6)n3)nc1)CC2 [Example 121, 5-fluoro-4-(5-fluoro-1,1-dimethyl-2,3-dihydro-1H-benzo[d]pyrrolo[1,2-a]imidazol-7-yl)-N-(5-((9-methyl-3,9-diazaspiro[5.5]undecan-3-yl)methyl)pyridin-2-yl)pyrimidin-2-amine] | > 100 nM
CCN1CCC2(CC1)CCN(Cc1ccc(Nc3ncc(F)c(-c4cc(F)c5nc6n(c5c4)C(C)(C)CC6)n3)nc1)CC2 [Example 122, N-(5-((9-ethyl-3,9-diazaspiro[5.5]undecan-3-yl)methyl)pyridin-2-yl)-5-fluoro-4-(5-fluoro-1,1-dimethyl-2,3-dihydro-1H-benzo[d]pyrrolo[1,2-a]imidazol-7-yl)pyrimidin-2-amine] | 10 to 100 nM
CC1(C)CCc2nc3c(F)cc(-c4nc(Nc5ccc(CN6CC7CNCC7C6)cn5)ncc4F)cc3n21 (stereo not drawn) [Example 123, 5-fluoro-4-(5-fluoro-1,1-dimethyl-2,3-dihydro-1H-benzo[d]pyrrolo[1,2-a]imidazol-7-yl)-N-(5-((hexahydropyrrolo[3,4-c]pyrrol-2(1H)-yl)methyl)pyridin-2-yl)pyrimidin-2-amine] | > 100 nM
CN1CC2CN(Cc3ccc(Nc4ncc(F)c(-c5cc(F)c6nc7n(c6c5)C(C)(C)CC7)n4)nc3)CC2C1 (stereo not drawn) [Example 124, 5-fluoro-4-(5-fluoro-1,1-dimethyl-2,3-dihydro-1H-benzo[d]pyrrolo[1,2-a]imidazol-7-yl)-N-(5-((5-methylhexahydropyrrolo[3,4-c]pyrrol-2(1H)-yl)methyl)pyridin-2-yl)pyrimidin-2-amine] | 10 to 100 nM
CCN1CC2CN(Cc3ccc(Nc4ncc(F)c(-c5cc(F)c6nc7n(c6c5)C(C)(C)CC7)n4)nc3)CC2C1 (stereo not drawn) [Example 125, N-(5-((5-ethylhexahydropyrrolo[3,4-c]pyrrol-2(1H)-yl)methyl)pyridin-2-yl)-5-fluoro-4-(5-fluoro-1,1-dimethyl-2,3-dihydro-1H-benzo[d]pyrrolo[1,2-a]imidazol-7-yl)pyrimidin-2-amine] | 10 to 100 nM
CC1(C)CCc2nc3c(F)cc(-c4nc(Nc5ccc(CN6C7CCC6CNC7)cn5)ncc4F)cc3n21 [Example 126, N-(5-((3,8-diazabicyclo[3.2.1]octan-8-yl)methyl)pyridin-2-yl)-5-fluoro-4-(5-fluoro-1,1-dimethyl-2,3-dihydro-1H-benzo[d]pyrrolo[1,2-a]imidazol-7-yl)pyrimidin-2-amine] | 10 to 100 nM
CN1CC2CCC(C1)N2Cc1ccc(Nc2ncc(F)c(-c3cc(F)c4nc5n(c4c3)C(C)(C)CC5)n2)nc1 [Example 127, 5-fluoro-4-(5-fluoro-1,1-dimethyl-2,3-dihydro-1H-benzo[d]pyrrolo[1,2-a]imidazol-7-yl)-N-(5-((3-methyl-3,8-diazabicyclo[3.2.1]octan-8-yl)methyl)pyridin-2-yl)pyrimidin-2-amine] | < 10 nM
CCN1CC2CCC(C1)N2Cc1ccc(Nc2ncc(F)c(-c3cc(F)c4nc5n(c4c3)C(C)(C)CC5)n2)nc1 [Example 128, N-(5-((3-ethyl-3,8-diazabicyclo[3.2.1]octan-8-yl)methyl)pyridin-2-yl)-5-fluoro-4-(5-fluoro-1,1-dimethyl-2,3-dihydro-1H-benzo[d]pyrrolo[1,2-a]imidazol-7-yl)pyrimidin-2-amine] | < 10 nM
CC1(C)CCc2nc3c(F)cc(-c4nc(Nc5ccc(CN6CC7CCC(C6)N7)cn5)ncc4F)cc3n21 [Example 129, N-(5-((3,8-diazabicyclo[3.2.1]octan-3-yl)methyl)pyridin-2-yl)-5-fluoro-4-(5-fluoro-1,1-dimethyl-2,3-dihydro-1H-benzo[d]pyrrolo[1,2-a]imidazol-7-yl)pyrimidin-2-amine] | 10 to 100 nM
CN1C2CCC1CN(Cc1ccc(Nc3ncc(F)c(-c4cc(F)c5nc6n(c5c4)C(C)(C)CC6)n3)nc1)C2 [Example 130, 5-fluoro-4-(5-fluoro-1,1-dimethyl-2,3-dihydro-1H-benzo[d]pyrrolo[1,2-a]imidazol-7-yl)-N-(5-((8-methyl-3,8-diazabicyclo[3.2.1]octan-3-yl)methyl)pyridin-2-yl)pyrimidin-2-amine] | 10 to 100 nM
CCN1C2CCC1CN(Cc1ccc(Nc3ncc(F)c(-c4cc(F)c5nc6n(c5c4)C(C)(C)CC6)n3)nc1)C2 [Example 131, N-(5-((8-ethyl-3,8-diazabicyclo[3.2.1]octan-3-yl)methyl)pyridin-2-yl)-5-fluoro-4-(5-fluoro-1,1-dimethyl-2,3-dihydro-1H-benzo[d]pyrrolo[1,2-a]imidazol-7-yl)pyrimidin-2-amine] | 10 to 100 nM
Fc1cnc(Nc2ccc(CN3CC4CC(C3)N4)cn2)nc1-c1cc(F)c2nc3n(c2c1)C1(CC3)CC1 [Example 132, N-(5-((3,6-diazabicyclo[3.1.1]heptan-3-yl)methyl)pyridin-2-yl)-5-fluoro-4-(5-fluoro-2,3-dihydrospiro[benzo[d]pyrrolo[1,2-a]imidazole-1,1′-cyclopropan]-7-yl)pyrimidin-2-amine] | > 100 nM
CN1C2CC1CN(Cc1ccc(Nc3ncc(F)c(-c4cc(F)c5nc6n(c5c4)C4(CC6)CC4)n3)nc1)C2 [Example 133, 5-fluoro-4-(5-fluoro-2,3-dihydrospiro[benzo[d]pyrrolo[1,2-a]imidazole-1,1′-cyclopropan]-7-yl)-N-(5-((6-methyl-3,6-diazabicyclo[3.1.1]heptan-3-yl)methyl)pyridin-2-yl)pyrimidin-2-amine] | 10 to 100 nM
